Like-named read-outs stand apart in the source and are kept apart here.
Columns and labels:
[1] = molecular target: T1, full length human wildtype Btk (Homo sapiens, UniProt Q06187); experiment: Biochemical Btk Kinase Assay (Example 901); conditions: read-out: BTK LC3K (Ki)
T1 construct: V5 (C); 6xHis (C); made in house; host or cells: Sf9 cells (baculovirus, pFastBac)
How it was run: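 Recombinant C-terminal V5/6×His-tagged Btk from Sf9 cells, 0.5 μM biotinylated PTK peptide 2, 40 μM ATP final, pH 7.5 Tris buffer, 1 h at room temperature; TR-FRET (SA-APC/PT66) read, IC50 from 11-point curve from 10 μM. Alternative LanthaScreen: 0.4 uM fluorescein poly-GAT, 25 μM ATP, 60 min, Tb-PY20 detection.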

[2] = test system: CD69 production by B lymphocytes in human whole blood activated with goat F(ab')2 anti-human IgM; experiment: CD69 Whole Blood Assay (Example 907); type: cell-based; conditions: Lymphocyte, read-out: CD69 Hu Blood FACS (IC70)
Description: A CD69 Whole Blood Assay can be conducted on Formula I compounds to determine the ability of compounds to inhibit the production of CD69 by B lymphocytes in human whole blood activated by crosslinking surface IgM with goat F(ab′)2 anti-human IgM (Example 907). CD69 is a type II C-type lectin involved in lymphocyte migration and cytokine secretion. CD69 expression represents one of the earliest available indicators of leukocyte activation and its rapid induction occurs through transcriptional activation (Vazquez et al (2009) Jour. of Immunology Published Oct. 19, 2009, doi: 10.4049/jimmunol.0900839). Concentration-dependent inhibition of antigen receptor stimulation by selective Btk inhibitors induces cell surface expression of the lymphocyte activation marker CD69 (Honigberg et al (2010) Proc. Natl. Acad. Sci. 107(29):13075-13080). Thus, CD69 inhibition by selective Btk inhibitors may be correlated with therapeutic efficacy of certain B-cell disorders.
Human blood is obtained from healthy volunteers, with the following restrictions: 1 week drug-free, non-smokers. Blood (approximately 20 mls to test 8 compounds) is collected by venipuncture into Vacutainer® (Becton, Dickinson and Co.) tubes with sodium heparin.
Solutions of Formula I compounds at 10 mM in DMSO are diluted 1:10 in 100% DMSO, then are diluted by three-fold serial dilutions in 100% DMSO for a ten point dose-response curve. The compounds are further diluted 1:10 in PBS and then an aliquot of 5.5 μl of each compound is added in duplicate to a 2 ml 96-well plate; 5.5 μl of 10% DMSO in PBS is added as control and no-stimulus wells. Human whole blood—HWB (100 μl) is added to each well. After mixing the plates are incubated at 37° C., 5% CO2, 100% humidity for 30 minutes. Goat F(ab′)2 anti-human IgM (10 μl of a 500 μg/ml solution, 50 μg/ml final) is added to each well (except the no-stimulus wells) with mixing and the plates are incubated for an additional 20 hours. At the end of the 20 hour incubation, samples are incubated with fluorescent labeled antibodies for 30 minutes, at 37° C., 5% CO2, 100% humidity. Include induced control, unstained and single stains for compensation adjustments and initial voltage settings. Samples are then lysed with PharM Lyse™ (BD Biosciences Pharmingen) according to the manufacturer's instructions. Samples are then transferred to a 96 well plate suitable to be run on the BD Biosciences HTS 96 well system on the LSRII machine. Data acquired and Mean Fluorescence Intensity values were obtained using BD Biosciences DIVA Software. Results are initially analyzed by FACS analysis software (Flow Jo).

[3] = human whole blood, anti-IgM stimulated, 20 hour incubation, CD20 positive cells, FACS

T1 sequence (Q06187 whole entry): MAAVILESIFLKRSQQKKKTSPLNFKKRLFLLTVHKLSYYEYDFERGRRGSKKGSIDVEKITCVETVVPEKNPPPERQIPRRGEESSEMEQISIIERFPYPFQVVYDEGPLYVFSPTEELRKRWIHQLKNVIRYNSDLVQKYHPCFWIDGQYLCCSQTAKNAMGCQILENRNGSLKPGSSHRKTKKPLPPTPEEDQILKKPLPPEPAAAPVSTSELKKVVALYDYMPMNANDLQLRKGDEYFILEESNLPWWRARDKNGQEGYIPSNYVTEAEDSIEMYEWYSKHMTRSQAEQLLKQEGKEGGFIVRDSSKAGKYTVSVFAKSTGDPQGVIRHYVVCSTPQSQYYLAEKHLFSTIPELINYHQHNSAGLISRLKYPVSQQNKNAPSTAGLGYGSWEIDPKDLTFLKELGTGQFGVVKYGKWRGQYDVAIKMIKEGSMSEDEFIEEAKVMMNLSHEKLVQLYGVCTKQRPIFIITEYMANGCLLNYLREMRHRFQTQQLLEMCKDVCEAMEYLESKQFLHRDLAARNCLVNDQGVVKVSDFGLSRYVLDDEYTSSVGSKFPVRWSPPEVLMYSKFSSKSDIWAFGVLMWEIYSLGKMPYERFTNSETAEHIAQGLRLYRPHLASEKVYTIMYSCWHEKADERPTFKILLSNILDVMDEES

CC1(C)Cc2cc3n(c2C1)CCN(c1nccc(-n2cc(C(N)=O)c(N)n2)c1CO)C3=O [Example 117, 3-amino-1-[2-(7,7-dimethyl-4-oxo-1,2,6,8-tetrahydrocyclopenta[3,4]pyrrolo[3,5-b]pyrazin-3-yl)-3-(hydroxymethyl)-4-pyridyl]pyrazole-4-carboxamide]
Ki [1]: 2.45 nM
IC70 ([2]; Homo sapiens, 20 h): 494 nM

CC1(C)Cc2cc3n(c2C1)CCN(c1nccc(-n2cc(C(N)=O)c(NC(=O)C4CC4)n2)c1CO)C3=O [Example 107, 3-(cyclopropanecarbonylamino)-1-[2-(7,7-dimethyl-4-oxo-1,2,6,8-tetrahydrocyclopenta[3,4]pyrrolo[3,5-b]pyrazin-3-yl)-3-(hydroxymethyl)-4-pyridyl]pyrazole-4-carboxamide]
Ki [1]: 0.615 nM
IC70 [2, 3]: 52.1 nM

Cn1cc(Nc2nn(-c3ccnc(-n4ncc5cc(C(C)(C)C)cc(F)c5c4=O)c3CO)cc2C(N)=O)nn1 [Example 111, 1-[2-(6-tert-butyl-8-fluoro-1-oxo-phthalazin-2-yl)-3-(hydroxymethyl)-4-pyridyl]-3-[(1-methyltriazol-4-yl)amino]pyrazole-4-carboxamide]
Ki [1]: 0.131 nM
IC70 [2, 3]: 77.3 nM

CC1(C)Cc2cc3n(c2C1)CCN(c1nccc(-n2cc(C(N)=O)c(Nc4ccccc4)n2)c1CO)C3=O [Example 101, 3-anilino-1-[2-(7,7-dimethyl-4-oxo-1,2,6,8-tetrahydrocyclopenta[3,4]pyrrolo[3,5-b]pyrazin-3-yl)-3-(hydroxymethyl)-4-pyridyl]pyrazole-4-carboxamide]
Ki [1]: 2.4 nM
IC70 [2, 3]: 36.9 nM

Cc1nn(C)cc1-c1nn(-c2ccnc(-n3ncc4cc(C(C)(C)C)cc(F)c4c3=O)c2CO)cc1C(N)=O [Example 122, 1-[2-(6-tert-butyl-8-fluoro-1-oxo-phthalazin-2-yl)-3-(hydroxymethyl)-4-pyridyl]-3-(1,3-dimethylpyrazol-4-yl)pyrazole-4-carboxamide]
Ki [1]: 8.6 nM
IC70 [2, 3]: 3300 nM

CC(C)(C)c1cc(F)c2c(=O)n(-c3nccc(-n4cc(C(N)=O)c(Nc5ccc(Cl)cn5)n4)c3CO)ncc2c1 [Example 116, 1-[2-(6-tert-butyl-8-fluoro-1-oxo-phthalazin-2-yl)-3-(hydroxymethyl)-4-pyridyl]-3-[(5-chloro-2-pyridyl)amino]pyrazole-4-carboxamide]
Ki [1]: 0.403 nM
IC70 [2, 3]: 311 nM

Cn1cc(-c2nn(-c3cc(F)cc(-n4ncc5cc(C(C)(C)C)cc(F)c5c4=O)c3CO)cc2C(N)=O)cn1 [Example 127, 1-[3-(6-tert-butyl-8-fluoro-1-oxo-phthalazin-2-yl)-5-fluoro-2-(hydroxymethyl)phenyl]-3-(1-methylpyrazol-4-yl)pyrazole-4-carboxamide]
Ki [1]: 1.3 nM
IC70 [2, 3]: 5000 nM

Cn1cc(Nc2nn(-c3cccc(N4CCn5c(cc6c5CC(C)(C)C6)C4=O)c3CO)cc2C(N)=O)nn1 [Example 105, 1-[3-(7,7-dimethyl-4-oxo-1,2,6,8-tetrahydrocyclopenta[3,4]pyrrole[3,5-b]pyrazin-3-yl)-2-(hydroxymethyl)phenyl]-3-[(1-methyltriazol-4-yl)amino]pyrazole-4-carboxamide]
Ki [1]: 0.326 nM
IC70 [2, 3]: 32.3 nM

CC(C)(C)c1cc(F)c2c(=O)n(-c3nccc(-n4cc(C(N)=O)c(Nc5ccccn5)n4)c3CO)ncc2c1 [Example 106, 1-[2-(6-tert-butyl-8-fluoro-1-oxo-phthalazin-2-yl)-3-(hydroxymethyl)-4-pyridyl]-3-(2-pyridylamino)pyrazole-4-carboxamide]
Ki [1]: 0.34 nM
IC70 ([2]; Homo sapiens, 20 h): 132 nM

Cn1cc(-c2nn(-c3ccnc(-n4ncc5cc(C(C)(C)C)cc(F)c5c4=O)c3CO)cc2C(N)=O)cn1 [Example 115, 1-[2-(6-tert-butyl-8-fluoro-1-oxo-phthalazin-2-yl)-3-(hydroxymethyl)-4-pyridyl]-3-(1-methylpyrazol-4-yl)pyrazole-4-carboxamide]
Ki [1]: 0.997 nM
IC70 [2, 3]: 268 nM

C[C@H]1CN(C2COC2)CCN1c1ccc(Nc2cn(-c3ccnc(N4CCn5c(cc6c5CC(C)(C)C6)C4=O)c3CO)nc2C(N)=O)nc1 [Example 126, 1-[2-(7,7-dimethyl-4-oxo-1,2,6,8-tetrahydrocyclopenta[3,4]pyrrolo[3,5-b]pyrazin-3-yl)-3-(hydroxymethyl)-4-pyridyl]-4-[[5-[(2S)-2-methyl-4-(oxetan-3-yl)piperazin-1-yl]-2-pyridyl]amino]pyrazole-3-carboxamide]
Ki [1]: 0.156 nM
IC70 [2, 3]: 6.4 nM
